Test results as given in paper PMC9038691, “A structural exposé of noncanonical molecular reactivity within the protein tyrosine phosphatase WPD loop” (Nature communications, 2022).
Blank lines part the entries; values can stand above or below the compound they belong to.

Tests used:
AtPFA-DSP1^49–215 = biological target: T1, AtPFA-DSP1^49–215 (Arabidopsis thaliana, UniProt Q9ZVN4, C150S); assay: X-ray crystal structure (soak); type: binding; details: active site
T1 construct: core catalytic domain, residues 49-215; N-terminal 6xHis-MBP tag cut with TEV protease; E. coli; monomer in solution
T1 sequence (Q9ZVN4 49-215 C150S): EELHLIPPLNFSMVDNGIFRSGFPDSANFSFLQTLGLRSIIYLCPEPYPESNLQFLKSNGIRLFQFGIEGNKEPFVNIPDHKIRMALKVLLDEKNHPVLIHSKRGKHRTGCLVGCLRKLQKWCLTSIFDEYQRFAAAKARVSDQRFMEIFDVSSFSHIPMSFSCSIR

AtPFA-DSP1 (full-length) = biological target: T2, AtPFA-DSP1 (full-length) (Arabidopsis thaliana, UniProt Q9ZVN4); assay: malachite green Pi release; type: biochemical; details: pH 7.2, 30 °C, 100 mM KCl, 0.8 mM MgCl2
T2 construct: full-length (codon-optimized cDNA, Genscript); pDest-566, N-terminal 6xHis-MBP tag cut with TEV protease; E. coli
T2 sequence (Q9ZVN4 whole entry): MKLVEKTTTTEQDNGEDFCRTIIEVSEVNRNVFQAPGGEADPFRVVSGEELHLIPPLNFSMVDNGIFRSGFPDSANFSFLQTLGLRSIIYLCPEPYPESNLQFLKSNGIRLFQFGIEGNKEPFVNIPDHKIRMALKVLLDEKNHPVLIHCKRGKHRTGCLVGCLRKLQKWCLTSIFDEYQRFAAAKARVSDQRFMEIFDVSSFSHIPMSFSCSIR

SMILES: O=P(O)(O)O[C@H]1[C@@H](OP(=O)(O)O)[C@H](OP(=O)(O)O)[C@@H](OP(=O)(O)OP(=O)(O)O)[C@H](OP(=O)(O)O)[C@H]1OP(=O)(O)O [5-InsP7, 5-diphosphoinositol 1,2,3,4,6-pentakisphosphate]
X-ray crystal structure (soak) (AtPFA-DSP1^49–215; substrate-trapping mutant, displaces Pi): it could now be successfully substituted by 5-InsP7

Km (AtPFA-DSP1 (full-length)): (c), 6-InsP7
SMILES: O=P(O)(O)O[C@H]1[C@@H](OP(=O)(O)O)[C@@H](OP(=O)(O)O)[C@H](OP(=O)(O)OP(=O)(O)O)[C@@H](OP(=O)(O)O)[C@@H]1OP(=O)(O)O [6-InsP7, 6-diphosphoinositol 1,2,3,4,5-pentakisphosphate]

SMILES: O=P(O)(O)O[C@@H]1[C@@H](OP(=O)(O)OP(=O)(O)O)[C@H](OP(=O)(O)O)[C@@H](OP(=O)(O)O)[C@@H](O)[C@H]1OP(=O)(O)O [5-PP-InsP4, 5-diphosphoinositol 1,3,4,6-tetrakisphosphate]
X-ray crystal structure (soak) (AtPFA-DSP1^49–215; beta-IN and beta-OUT poses, the latter together with Pi): instructive crystals of AtPFA-DSP1 in complex with 5-PP-InsP4
